System: 677734-321-R-J1-PDC complex spheroid viability
Test: Anticancer human tumor 677734-321-R-J1-PDC patient-derived soft tissue sarcoma cell line growth inhibition [POLQ]
Settings: for IC50: curve of first compound; for viability, T/C: stronger effect = lower value
Summary of the method: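 PDC + HUVEC + MSC complex spheroids; POLQ inhibitors ± partner drugs; top conc. at/near clinical Cmax, else 10 microM (SN-38 1 microM), half-log dilutions; 37 degrees C, 5% CO2.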

[1] = second compound 0.0316 µM, first compound 0.0316 µM
[2] = second compound 0.0316 µM, first compound 0.1 µM
[3] = second compound 0.0316 µM, first compound 0.316 µM
[4] = second compound 0.0316 µM, first compound 1 µM
[5] = second compound 0.0316 µM, first compound 3.16 µM
[6] = second compound 0.0316 µM, first compound 10 µM
[7] = second compound 0.1 µM, first compound 0.0316 µM
[8] = second compound 0.1 µM, first compound 0.1 µM
[9] = second compound 0.1 µM, first compound 0.316 µM
[10] = second compound 0.1 µM, first compound 1 µM
[11] = second compound 0.1 µM, first compound 3.16 µM
[12] = second compound 0.1 µM, first compound 10 µM
[13] = second compound 0.316 µM, first compound 0.0316 µM
[14] = second compound 0.316 µM, first compound 0.1 µM
[15] = second compound 0.316 µM, first compound 0.316 µM
[16] = second compound 0.316 µM, first compound 1 µM
[17] = second compound 0.316 µM, first compound 3.16 µM
[18] = second compound 0.316 µM, first compound 10 µM
[19] = second compound 1 µM, first compound 0.0316 µM
[20] = second compound 1 µM, first compound 0.1 µM
[21] = second compound 1 µM, first compound 0.316 µM
[22] = second compound 1 µM, first compound 1 µM
[23] = second compound 1 µM, first compound 3.16 µM
[24] = second compound 1 µM, first compound 10 µM
[25] = second compound 3.16 µM, first compound 0.0316 µM
[26] = second compound 3.16 µM, first compound 0.1 µM
[27] = second compound 3.16 µM, first compound 0.316 µM
[28] = second compound 3.16 µM, first compound 1 µM
[29] = second compound 3.16 µM, first compound 3.16 µM
[30] = second compound 3.16 µM, first compound 10 µM
[31] = second compound 10 µM, first compound 0.0316 µM
[32] = second compound 10 µM, first compound 0.1 µM
[33] = second compound 10 µM, first compound 0.316 µM
[34] = second compound 10 µM, first compound 1 µM
[35] = second compound 10 µM, first compound 3.16 µM
[36] = second compound 10 µM, first compound 10 µM
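Note: spheroids exposed to compounds for one week.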
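Throughout, for viability, T/C: 100% = vehicle DMSO treated spheroids.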

In the case of `COc1cc2cc(C(=O)CCC(=O)O)sc2cc1OC` + Cc1cccc(N(C)C(=O)C2C(O)CCN2c2nc(C)cc(C(F)(F)F)c2C#N)c1, the IC50 (second compound 0.0316 µM) is reported as greater than 10 µM, the IC50 (second compound 0.1 µM) is reported as greater than 10 µM and the IC50 (second compound 0.316 µM) is reported as greater than 10 µM. It also gave an IC50 (second compound 1 µM) greater than 10 µM, an IC50 (second compound 3.16 µM) greater than 10 µM and an IC50 (second compound 10 µM) greater than 10 µM. It also gave a viability, T/C [1] of 104%, a viability, T/C [2] of 87.6% and a viability, T/C [3] of 97.2%. The viability, T/C [4] was 101%, the viability, T/C [5] was 110% and the viability, T/C [6] was 92.4%. The viability, T/C [7] was 92.8%, the viability, T/C [8] was 87% and the viability, T/C [9] was 92%. It also gave a viability, T/C [10] of 107%, a viability, T/C [11] of 103% and a viability, T/C [12] of 86%. The viability, T/C [13] was 115%, the viability, T/C [14] was 94.8% and the viability, T/C [15] was 89.6%. For the same compound, the viability, T/C [16] was 87.8%, the viability, T/C [17] was 101% and the viability, T/C [18] was 74.5%. It also gave a viability, T/C [19] of 86.4%, a viability, T/C [20] of 77.4% and a viability, T/C [21] of 89.2%. It also gave a viability, T/C [22] of 99.7%, a viability, T/C [23] of 81.3% and a viability, T/C [24] of 70.7%. The viability, T/C [25] was 96.2%, the viability, T/C [26] was 87.1% and the viability, T/C [27] was 84.4%. It also gave a viability, T/C [28] of 102%, a viability, T/C [29] of 83.1% and a viability, T/C [30] of 82.3%. It also gave a viability, T/C [31] of 77.1%, a viability, T/C [32] of 91.8% and a viability, T/C [33] of 77.4%. It also gave a viability, T/C [34] of 79.4%, a viability, T/C [35] of 88.7% and a viability, T/C [36] of 85.8%.
For `O=C(c1cc(Cc2n[nH]c(=O)c3ccccc23)ccc1F)N1CCN(C(=O)C2CC2)CC1` + COC1C(OC(N)=O)C(O)C(Oc2ccc3c(O)c(NC(=O)c4ccc(O)c(CC=C(C)C)c4)c(=O)oc3c2C)OC1(C)C, the IC50 (second compound 0.0316 µM) was greater than 10 µM, the IC50 (second compound 0.1 µM) was greater than 10 µM and the IC50 (second compound 0.316 µM) was greater than 10 µM. It also gave an IC50 (second compound 1 µM) greater than 10 µM, an IC50 (second compound 3.16 µM) greater than 10 µM and an IC50 (second compound 10 µM) greater than 10 µM. The viability, T/C [1] was 108%, the viability, T/C [2] was 105% and the viability, T/C [3] was 103%. It also gave a viability, T/C [4] of 110%, a viability, T/C [5] of 102% and a viability, T/C [6] of 86.4%. For the same compound, the viability, T/C [7] was 104%, the viability, T/C [8] was 112% and the viability, T/C [9] was 101%. For the same compound, the viability, T/C [10] was 104%, the viability, T/C [11] was 107% and the viability, T/C [12] was 79.6%. The viability, T/C [13] was 112%, the viability, T/C [14] was 111% and the viability, T/C [15] was 104%. For the same compound, the viability, T/C [16] was 111%, the viability, T/C [17] was 111% and the viability, T/C [18] was 78.1%. It also gave a viability, T/C [19] of 108%, a viability, T/C [20] of 105% and a viability, T/C [21] of 111%. For the same compound, the viability, T/C [22] was 99.9%, the viability, T/C [23] was 107% and the viability, T/C [24] was 81.2%. It also gave a viability, T/C [25] of 117%, a viability, T/C [26] of 111% and a viability, T/C [27] of 113%. The viability, T/C [28] was 103%, the viability, T/C [29] was 100% and the viability, T/C [30] was 87.3%. It also gave a viability, T/C [31] of 118%, a viability, T/C [32] of 106% and a viability, T/C [33] of 108%. It also gave a viability, T/C [34] of 112%, a viability, T/C [35] of 103% and a viability, T/C [36] of 88%.
In the case of `COc1cc(C2c3cc4c(cc3C(OC3OC5COC(C)OC5C(O)C3O)C3COC(=O)C23)OCO4)cc(OC)c1O` (stereo unspecified) + Cc1cccc(N(C)C(=O)C2C(O)CCN2c2nc(C)cc(C(F)(F)F)c2C#N)c1, the IC50 (second compound 0.0316 µM) is reported as 0.773 µM, the IC50 (second compound 0.1 µM) is reported as 0.873 µM and the IC50 (second compound 0.316 µM) is reported as 0.907 µM. The IC50 (second compound 1 µM) was 0.821 µM, the IC50 (second compound 3.16 µM) was 0.641 µM and the IC50 (second compound 10 µM) was 0.814 µM. It also gave a viability, T/C [1] of 99.4%, a viability, T/C [2] of 101% and a viability, T/C [3] of 60.8%. For the same compound, the viability, T/C [4] was 47%, the viability, T/C [5] was 26.6% and the viability, T/C [6] was 10.5%. For the same compound, the viability, T/C [7] was 103%, the viability, T/C [8] was 87.7% and the viability, T/C [9] was 63.3%. For the same compound, the viability, T/C [10] was 54.3%, the viability, T/C [11] was 23% and the viability, T/C [12] was 10.7%. The viability, T/C [13] was 107%, the viability, T/C [14] was 90.6% and the viability, T/C [15] was 68.6%. For the same compound, the viability, T/C [16] was 52.4%, the viability, T/C [17] was 22.5% and the viability, T/C [18] was 8.11%. For the same compound, the viability, T/C [19] was 114%, the viability, T/C [20] was 86.1% and the viability, T/C [21] was 62.6%. The viability, T/C [22] was 50.1%, the viability, T/C [23] was 23.7% and the viability, T/C [24] was 9.86%. It also gave a viability, T/C [25] of 104%, a viability, T/C [26] of 88.7% and a viability, T/C [27] of 52%. For the same compound, the viability, T/C [28] was 50.7%, the viability, T/C [29] was 22% and the viability, T/C [30] was 10.1%. The viability, T/C [31] was 107%, the viability, T/C [32] was 83.3% and the viability, T/C [33] was 65.8%. The viability, T/C [34] was 52.7%, the viability, T/C [35] was 21.5% and the viability, T/C [36] was 14.7%.
